Data on two molecules can be found in paper PMC5630020 (Genes & Development, 2017).

The target of one series is E. coli SspA homodimer (Escherichia coli, UniProt P0ACA3). The series is classed as binding.
The series “SEC” concerns the molecule itself. Nature of the series: SEC.

`Nc1nc2c(ncn2[C@@H]2O[C@H](COP(=O)(O)OP(=O)(O)O)[C@@H](OP(=O)(O)OP(=O)(O)O)[C@H]2O)c(=O)[nH]1` [ppGpp]: on E. coli SspA homodimer, the DRaCALA result is “only very weak binding requiring ppGpp concentrations in the high micromolar range”.

B1: E. coli SspA, wild type (natural protein, UniProt P0ACA3 1-212, looked up)
chain: MAVAANKRSVMTLFSGPTDIYSHQVRIVLAEKGVSFEIEHVEKDNPPQDLIDLNPNQSVPTLVDRELTLWESRIIMEYLDERFPHPPLMPVYPVARGESRLYMHRIEKDWYTLMNTIINGSASEADAARKQLREELLAIAPVFGQKPYFLSDEFSLVDCYLAPLLWRLPQLGIEFSGPGAKELKGYMTRVFERDSFLASLTEAEREMRLGRS
notes: also called wild-type SspA; E. coli SspA homodimer
In the case of B1, the “stoichiometry N” value in “SEC” is 2.
